Test results published in ChEMBL document CHEMBL1201862, “PubChem BioAssay data set” (2004).
The source made the active and inactive calls.

Experiments:
[1] = molecular target: T1, Short transient receptor potential channel 4 (Mus musculus, UniProt Q9QUQ5); test: mouse TRPC4 channel inhibitors, dose response, cell-based, HEK293 TRPC4/mu-opioid, Fluo-4 calcium (AID 434942); assay type: functional;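 also: potency of inhibitors blocking the TRPC4 calcium response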
T1 sequence (Q9QUQ5 whole entry): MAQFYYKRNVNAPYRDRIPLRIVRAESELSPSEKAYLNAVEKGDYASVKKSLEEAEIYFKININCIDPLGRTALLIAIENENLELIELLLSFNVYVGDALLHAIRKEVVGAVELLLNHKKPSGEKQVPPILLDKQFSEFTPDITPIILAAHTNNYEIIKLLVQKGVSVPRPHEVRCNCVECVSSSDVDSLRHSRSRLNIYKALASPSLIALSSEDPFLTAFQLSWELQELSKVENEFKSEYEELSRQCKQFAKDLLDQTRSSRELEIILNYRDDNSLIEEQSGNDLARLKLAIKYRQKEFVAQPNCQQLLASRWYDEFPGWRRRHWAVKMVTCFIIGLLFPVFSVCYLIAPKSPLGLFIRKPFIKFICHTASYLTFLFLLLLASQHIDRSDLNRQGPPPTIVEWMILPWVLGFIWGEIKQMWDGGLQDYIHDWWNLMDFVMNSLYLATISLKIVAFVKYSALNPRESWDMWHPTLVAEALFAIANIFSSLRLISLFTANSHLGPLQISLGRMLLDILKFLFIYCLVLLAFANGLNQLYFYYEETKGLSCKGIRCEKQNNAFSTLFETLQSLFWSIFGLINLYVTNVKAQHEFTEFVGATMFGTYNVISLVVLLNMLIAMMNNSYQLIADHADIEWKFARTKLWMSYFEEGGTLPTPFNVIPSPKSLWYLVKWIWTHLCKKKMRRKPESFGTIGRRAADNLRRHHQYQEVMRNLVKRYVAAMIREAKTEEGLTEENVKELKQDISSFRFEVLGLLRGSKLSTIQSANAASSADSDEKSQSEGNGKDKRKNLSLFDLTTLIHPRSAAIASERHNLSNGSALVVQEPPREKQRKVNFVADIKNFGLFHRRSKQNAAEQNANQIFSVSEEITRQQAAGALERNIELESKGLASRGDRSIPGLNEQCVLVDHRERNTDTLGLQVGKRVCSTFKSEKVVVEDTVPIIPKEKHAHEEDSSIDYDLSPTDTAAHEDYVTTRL

Fatty acid synthase [2] = molecular target: T2, Fatty acid synthase (Homo sapiens, UniProt P49327); test: FAS thioesterase domain inhibitors, dose response, biochemical, endpoint fluorescence intensity, uHTS hits (AID 624327); assay type: functional;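 also: fluorescence from hydrolysis of an O-methyl fluorescein acyl ester substrate by the enzyme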
T2 sequence (P49327 whole entry, the tested form may be a part): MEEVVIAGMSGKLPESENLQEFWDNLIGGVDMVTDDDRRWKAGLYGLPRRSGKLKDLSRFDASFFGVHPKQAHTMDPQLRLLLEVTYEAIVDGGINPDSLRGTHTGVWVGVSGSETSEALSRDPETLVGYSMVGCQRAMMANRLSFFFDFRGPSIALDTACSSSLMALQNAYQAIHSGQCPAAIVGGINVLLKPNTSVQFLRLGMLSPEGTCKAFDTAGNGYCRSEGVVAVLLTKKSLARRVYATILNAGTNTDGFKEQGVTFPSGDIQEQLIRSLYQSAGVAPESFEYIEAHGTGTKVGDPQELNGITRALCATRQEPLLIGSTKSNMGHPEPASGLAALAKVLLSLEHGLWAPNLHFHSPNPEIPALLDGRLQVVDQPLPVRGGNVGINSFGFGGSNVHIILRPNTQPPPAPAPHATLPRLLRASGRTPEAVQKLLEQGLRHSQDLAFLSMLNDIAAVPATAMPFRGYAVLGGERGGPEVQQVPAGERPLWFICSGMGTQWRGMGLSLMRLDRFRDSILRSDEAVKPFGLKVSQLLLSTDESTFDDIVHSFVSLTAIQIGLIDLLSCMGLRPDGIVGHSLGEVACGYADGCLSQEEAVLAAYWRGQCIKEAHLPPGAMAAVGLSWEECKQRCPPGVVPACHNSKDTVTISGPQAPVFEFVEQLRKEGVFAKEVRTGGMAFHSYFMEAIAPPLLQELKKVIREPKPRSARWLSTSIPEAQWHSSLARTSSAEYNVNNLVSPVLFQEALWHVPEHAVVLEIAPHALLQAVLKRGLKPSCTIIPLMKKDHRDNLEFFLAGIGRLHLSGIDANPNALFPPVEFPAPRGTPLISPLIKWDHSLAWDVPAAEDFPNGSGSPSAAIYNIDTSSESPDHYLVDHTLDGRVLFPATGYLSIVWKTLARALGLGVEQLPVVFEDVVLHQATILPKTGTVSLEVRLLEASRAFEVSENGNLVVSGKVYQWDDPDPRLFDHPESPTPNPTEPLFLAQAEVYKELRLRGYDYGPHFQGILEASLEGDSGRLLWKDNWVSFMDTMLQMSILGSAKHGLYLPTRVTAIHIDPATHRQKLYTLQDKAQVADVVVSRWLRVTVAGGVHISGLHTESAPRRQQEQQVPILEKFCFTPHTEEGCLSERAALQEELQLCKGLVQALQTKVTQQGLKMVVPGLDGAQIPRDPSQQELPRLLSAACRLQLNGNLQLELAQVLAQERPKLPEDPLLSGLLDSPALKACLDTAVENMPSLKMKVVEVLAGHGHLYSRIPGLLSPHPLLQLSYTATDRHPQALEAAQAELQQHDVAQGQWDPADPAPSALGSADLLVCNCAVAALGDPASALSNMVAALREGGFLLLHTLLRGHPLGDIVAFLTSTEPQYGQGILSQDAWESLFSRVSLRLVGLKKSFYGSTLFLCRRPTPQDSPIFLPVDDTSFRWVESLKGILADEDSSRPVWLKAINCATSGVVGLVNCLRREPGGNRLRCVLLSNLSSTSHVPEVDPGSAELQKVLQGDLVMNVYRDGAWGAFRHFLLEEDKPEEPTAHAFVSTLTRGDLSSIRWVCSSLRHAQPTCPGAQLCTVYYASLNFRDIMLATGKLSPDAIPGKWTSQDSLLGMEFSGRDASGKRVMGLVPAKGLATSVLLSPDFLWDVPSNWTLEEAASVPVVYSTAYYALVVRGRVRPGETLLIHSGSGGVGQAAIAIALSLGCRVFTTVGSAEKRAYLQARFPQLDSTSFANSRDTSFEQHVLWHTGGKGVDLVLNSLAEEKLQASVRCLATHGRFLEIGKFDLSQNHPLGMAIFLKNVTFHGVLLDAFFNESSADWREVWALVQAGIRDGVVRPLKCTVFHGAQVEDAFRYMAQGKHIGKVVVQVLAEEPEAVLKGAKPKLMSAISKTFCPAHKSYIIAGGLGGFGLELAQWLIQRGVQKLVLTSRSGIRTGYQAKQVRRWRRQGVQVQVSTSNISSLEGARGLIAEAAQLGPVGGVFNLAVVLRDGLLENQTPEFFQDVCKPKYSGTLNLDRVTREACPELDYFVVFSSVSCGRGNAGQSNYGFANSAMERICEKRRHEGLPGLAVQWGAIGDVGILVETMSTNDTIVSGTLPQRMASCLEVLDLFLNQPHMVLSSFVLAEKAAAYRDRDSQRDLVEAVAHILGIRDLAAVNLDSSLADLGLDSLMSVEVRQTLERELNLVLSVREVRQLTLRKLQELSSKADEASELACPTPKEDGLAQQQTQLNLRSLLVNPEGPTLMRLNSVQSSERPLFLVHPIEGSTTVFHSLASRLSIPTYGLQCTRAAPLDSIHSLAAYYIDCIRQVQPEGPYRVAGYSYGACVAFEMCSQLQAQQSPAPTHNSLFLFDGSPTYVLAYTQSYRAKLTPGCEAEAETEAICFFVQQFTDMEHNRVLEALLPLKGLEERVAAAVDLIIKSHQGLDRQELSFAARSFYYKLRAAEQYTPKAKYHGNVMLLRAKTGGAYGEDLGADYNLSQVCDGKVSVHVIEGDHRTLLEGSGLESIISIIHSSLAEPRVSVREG

Fatty acid synthase [3] = molecular target: T2, Fatty acid synthase; test: FAS thioesterase domain inhibitors, dose response, biochemical, kinetic fluorescence intensity (AID 624326); assay type: functional;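 also: rate of fluorescence rise from hydrolysis of a fluorogenic O-methyl fluorescein ester substrate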
Leucine aminopeptidase = molecular target: T3, Leucine aminopeptidase (Plasmodium falciparum 3D7, UniProt Q8IL11); test: P. falciparum M17LAP inhibitors, primary screen, biochemical, fluorogenic H-Leu-NHMec substrate, 1536-well (AID 1619); assay type: functional
T3 sequence (Q8IL11 whole entry): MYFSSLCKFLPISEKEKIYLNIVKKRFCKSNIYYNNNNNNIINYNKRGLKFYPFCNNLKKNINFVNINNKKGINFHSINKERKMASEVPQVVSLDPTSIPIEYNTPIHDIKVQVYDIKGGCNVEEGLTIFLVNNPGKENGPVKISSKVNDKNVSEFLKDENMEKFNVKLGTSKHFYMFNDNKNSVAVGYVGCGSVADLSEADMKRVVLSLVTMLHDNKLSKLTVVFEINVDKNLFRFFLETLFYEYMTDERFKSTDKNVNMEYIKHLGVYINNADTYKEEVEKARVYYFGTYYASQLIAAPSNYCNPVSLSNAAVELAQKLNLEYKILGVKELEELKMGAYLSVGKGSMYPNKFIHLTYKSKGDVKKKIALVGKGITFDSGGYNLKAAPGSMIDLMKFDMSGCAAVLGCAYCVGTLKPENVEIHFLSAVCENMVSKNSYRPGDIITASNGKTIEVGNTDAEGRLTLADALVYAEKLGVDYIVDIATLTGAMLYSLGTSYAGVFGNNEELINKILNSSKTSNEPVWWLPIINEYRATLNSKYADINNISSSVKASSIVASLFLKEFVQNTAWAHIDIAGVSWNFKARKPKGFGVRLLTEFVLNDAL

[4] = molecular target: T4, Methionyl-tRNA synthetase, putative (Trypanosoma brucei brucei, UniProt Q38C91); assay type: functional, Trypanosoma brucei brucei strain 927/4 GUTat10.1
T4 sequence (Q38C91 whole entry): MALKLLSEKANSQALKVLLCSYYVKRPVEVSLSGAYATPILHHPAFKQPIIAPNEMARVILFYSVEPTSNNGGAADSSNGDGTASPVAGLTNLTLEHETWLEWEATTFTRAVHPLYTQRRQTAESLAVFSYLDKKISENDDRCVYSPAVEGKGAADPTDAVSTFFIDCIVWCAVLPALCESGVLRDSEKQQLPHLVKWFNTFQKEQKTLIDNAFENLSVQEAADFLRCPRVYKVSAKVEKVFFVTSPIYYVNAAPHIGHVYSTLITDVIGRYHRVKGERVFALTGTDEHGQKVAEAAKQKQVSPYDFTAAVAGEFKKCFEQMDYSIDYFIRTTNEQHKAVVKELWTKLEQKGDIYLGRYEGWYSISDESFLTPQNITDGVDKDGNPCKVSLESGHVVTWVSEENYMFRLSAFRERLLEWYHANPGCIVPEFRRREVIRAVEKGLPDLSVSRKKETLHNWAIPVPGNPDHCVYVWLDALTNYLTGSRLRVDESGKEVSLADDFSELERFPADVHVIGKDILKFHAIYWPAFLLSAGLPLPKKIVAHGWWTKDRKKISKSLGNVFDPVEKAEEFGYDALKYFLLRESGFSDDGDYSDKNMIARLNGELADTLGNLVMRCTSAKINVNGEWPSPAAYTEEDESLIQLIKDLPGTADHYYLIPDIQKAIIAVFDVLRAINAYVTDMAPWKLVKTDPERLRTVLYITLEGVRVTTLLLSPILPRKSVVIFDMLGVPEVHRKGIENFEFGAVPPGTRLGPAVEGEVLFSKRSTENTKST

[5] = Counterscreen for inhibitors of Trypanosoma brucei methionyl tRNA synthetase (MetRS): Luminescence-based cell-based high throughput dose response assay to identify compounds that are cytotoxic to Jurkat human T lymphocyte cells.; assay type: functional
[6] = molecular target: T4, Methionyl-tRNA synthetase, putative; assay type: functional, Trypanosoma brucei brucei strain 927/4 GUTat10.1; remark: listed apart in the source
Aminopeptidase N = molecular target: T5, Aminopeptidase N (Plasmodium falciparum FcB1/Columbia, UniProt O96935); test: P. falciparum M1AAP inhibitors, biochemical, fluorogenic H-Leu-NHMec substrate, 1536-well (AID 1445); design: species or system Plasmodium falciparum 3D7, 3D7
T5 sequence (O96935 whole entry): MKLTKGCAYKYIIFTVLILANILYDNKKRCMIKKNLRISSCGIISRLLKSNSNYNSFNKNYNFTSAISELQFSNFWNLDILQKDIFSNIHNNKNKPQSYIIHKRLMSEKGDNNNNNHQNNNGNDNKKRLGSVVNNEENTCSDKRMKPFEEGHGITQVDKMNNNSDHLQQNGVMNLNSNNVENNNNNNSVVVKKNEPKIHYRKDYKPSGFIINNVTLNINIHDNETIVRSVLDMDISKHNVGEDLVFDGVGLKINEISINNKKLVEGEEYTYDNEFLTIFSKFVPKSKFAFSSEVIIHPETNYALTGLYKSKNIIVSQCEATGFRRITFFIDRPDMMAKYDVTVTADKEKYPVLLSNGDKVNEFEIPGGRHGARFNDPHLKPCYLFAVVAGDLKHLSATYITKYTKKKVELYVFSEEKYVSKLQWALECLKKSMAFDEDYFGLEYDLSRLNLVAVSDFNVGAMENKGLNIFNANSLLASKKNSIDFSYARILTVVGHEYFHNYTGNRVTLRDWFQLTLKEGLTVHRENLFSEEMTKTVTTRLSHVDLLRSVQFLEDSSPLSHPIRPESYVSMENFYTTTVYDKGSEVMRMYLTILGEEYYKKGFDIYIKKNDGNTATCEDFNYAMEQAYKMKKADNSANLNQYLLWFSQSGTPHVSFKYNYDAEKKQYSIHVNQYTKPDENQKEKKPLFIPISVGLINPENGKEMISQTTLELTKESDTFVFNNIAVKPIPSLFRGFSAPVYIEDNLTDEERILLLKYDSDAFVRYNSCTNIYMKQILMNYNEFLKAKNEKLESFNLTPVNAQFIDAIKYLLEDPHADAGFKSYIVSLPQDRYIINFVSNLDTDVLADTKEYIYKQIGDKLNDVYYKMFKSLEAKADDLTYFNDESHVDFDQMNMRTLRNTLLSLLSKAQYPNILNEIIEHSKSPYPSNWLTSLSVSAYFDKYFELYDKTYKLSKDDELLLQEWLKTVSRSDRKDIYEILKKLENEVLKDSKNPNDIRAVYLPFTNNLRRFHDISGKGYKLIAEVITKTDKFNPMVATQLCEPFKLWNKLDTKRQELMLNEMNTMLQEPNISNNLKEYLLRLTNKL

[7] = molecular target: T6, Microphthalmia-associated transcription factor (Homo sapiens, UniProt O75030); test: TRPM1 promoter luciferase signal decrease, dose response, MITF inhibitor project, cell-based, SK-MEL-5, cherry-picked, set 3 (AID 493073); assay type: functional
T6 sequence (O75030 whole entry): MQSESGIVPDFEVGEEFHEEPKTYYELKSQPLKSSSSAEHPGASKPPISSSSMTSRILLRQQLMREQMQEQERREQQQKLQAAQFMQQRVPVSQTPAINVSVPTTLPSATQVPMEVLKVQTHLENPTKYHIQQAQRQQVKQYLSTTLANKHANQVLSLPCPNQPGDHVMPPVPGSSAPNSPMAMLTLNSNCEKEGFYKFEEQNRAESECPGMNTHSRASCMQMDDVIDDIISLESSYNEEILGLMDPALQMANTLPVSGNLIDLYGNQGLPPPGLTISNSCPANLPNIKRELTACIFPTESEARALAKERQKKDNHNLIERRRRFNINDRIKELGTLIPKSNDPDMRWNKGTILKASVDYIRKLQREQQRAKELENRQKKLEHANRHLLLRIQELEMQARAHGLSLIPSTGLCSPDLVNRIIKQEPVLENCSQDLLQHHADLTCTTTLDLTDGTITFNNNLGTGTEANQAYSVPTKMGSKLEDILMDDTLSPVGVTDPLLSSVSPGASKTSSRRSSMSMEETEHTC

INS1 = test: beta cell apoptosis inhibitors, cytokine rescue, dose response, luminescence, retest (AID 449756); assay type: functional, cell-based; conditions: Rattus norvegicus;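 also: cell death triggered by IL-1 beta plus TNF-alpha plus IFN-gamma mixture; protective hits raise ATP signal compared with cytokine alone wells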
[8] = cytotoxicity in HEK-293T cells, dose response, cytotoxicity control for BCR NF-kB inhibitor project, luminescence, B-cell screen hits (AID 489021); assay type: functional, cell-based;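 also: HEK-293T cells carrying an NF-kB luciferase reporter; cells exposed to compound for about 14 hours before viability readout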
cells = assay type: functional
[9] = Luminescence Cell-Based Dose Confirmation HTS to Identify Inhibitors of Platelet Dense Granule Release. [Related pubchem assays: 1663 (Primary HTS), 1678 (Summary of Project)]; assay type: functional
[10] = molecular target: Luciferin 4-monooxygenase (Photinus pyralis, UniProt P08659); test: firefly luciferase enzyme inhibitors, dose response, biochemical, luminescence (AID 1891)
Chain of Luciferin 4-monooxygenase (P08659 whole entry): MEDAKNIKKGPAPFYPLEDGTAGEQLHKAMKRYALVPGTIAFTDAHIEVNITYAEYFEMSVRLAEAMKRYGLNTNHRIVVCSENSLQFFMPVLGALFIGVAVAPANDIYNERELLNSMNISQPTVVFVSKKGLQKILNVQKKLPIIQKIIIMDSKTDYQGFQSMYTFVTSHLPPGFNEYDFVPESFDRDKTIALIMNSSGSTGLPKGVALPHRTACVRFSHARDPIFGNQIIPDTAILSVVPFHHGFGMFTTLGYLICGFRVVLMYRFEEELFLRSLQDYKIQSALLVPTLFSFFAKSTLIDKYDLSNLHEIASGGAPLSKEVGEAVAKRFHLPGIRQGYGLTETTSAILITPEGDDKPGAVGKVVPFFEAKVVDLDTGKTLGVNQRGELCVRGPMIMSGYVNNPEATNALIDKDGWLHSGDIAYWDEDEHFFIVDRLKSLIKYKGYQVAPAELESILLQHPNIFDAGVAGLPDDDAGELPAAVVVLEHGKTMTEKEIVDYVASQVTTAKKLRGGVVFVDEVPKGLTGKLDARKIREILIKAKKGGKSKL

Q: With `Cc1ccc(C)c2nc(O)c(CN(CC3CCCO3)C(S)=NCc3ccco3)cc12` (stereo unspecified) as the compound, how does the EC50 [1] read?
A: 2.11 µM (active)

Q: What does the source list for `Cc1c(OCc2nn[nH]n2)ccc2c(-c3ccccc3)cc(=O)oc12`?
A: IC50 (Fatty acid synthase [2]): 1.59 µM (active); IC50 (Fatty acid synthase [3]): 1.61 µM (active); IC50 (Leucine aminopeptidase): 95.1 µM (active)

Q: What does the source list for `CCN(CC)C(=O)C(=O)c1cn(CC(=O)NCc2ccc3c(c2)OCO3)c2ccccc12`?
A: IC50 [4]: 4.83 µM (active); IC50 [5]: 83.3 µM (inactive); IC50 [6]: 14.4 µM (inactive)

Q: Which IC50 (Aminopeptidase N) does the source give for `O=C(O)CCCC(=O)N1N=C(c2c(O)nc3ccc(Cl)cc3c2-c2ccccc2)CC1c1cccs1` (stereo unspecified) here?
A: 20.3 µM (active)

Q: For `Cc1ccc(-c2c[n+](-c3ccc(SC(F)F)cc3)c3n2CCC3)cc1`, which AC50 [7] is on record?
A: 1.64 µM (active)

Q: And the AC50 (INS1)?
A: 5.09 µM (active)

Q: Which IC50 (Aminopeptidase N) does the source give for `Cc1ncc(CO)c(/C=N/NC(=O)c2ccc(Br)cc2)c1O` here?
A: 14.4 µM (active)

Q: With `CC(=O)OC1(c2ccccc2)CCN(C2CCCCC2)CC1C` (stereo unspecified) as the compound, how does the EC50 [1] read?
A: 1.06 µM (active)

Q: For `CC(C)(C)C1CCc2c(C(=O)NNC(=O)CCC(=O)O)csc2C1` (stereo unspecified), which IC50 (Leucine aminopeptidase) is on record?
A: 14.5 µM (active)

Q: Which EC50 [1] does the source give for `CCCn1c(=N)n(CC(=O)C(C)(C)C)c2ccccc21` here?
A: 5.31 µM (active)

Q: With `Cc1ccccc1NC(=O)CN1C(=O)NC2(CCCCC2)C1=O` as the compound, how does the IC50 (Leucine aminopeptidase) read?
A: 71.9 µM (active)

Q: With `CCCN1C(=O)/C(=C/c2c(N3CCNC(=O)C3CC(=O)OCC)nc3c(C)cccn3c2=O)SC1=S` (stereo unspecified) as the compound, how does the IC50 (Aminopeptidase N) read?
A: 34.1 µM (active)

Q: What about the IC50 [8] of the same compound?
A: 50 µM (inactive)

Q: Which results are given for `OC(c1cc(Cl)cc(Cl)c1)c1nc(-c2ccccc2C(F)(F)F)c[nH]1` (stereo unspecified)?
A: IC50 [4]: 2.88 µM (active); IC50 [5]: 59.4 µM (inactive); IC50 [6]: 4.05 µM (active)

Q: Which IC50 (Aminopeptidase N) does the source give for `CCOc1cc(C2C3=C(CCCC3=O)OC3=C2C(=O)CCC3)cc([N+](=O)[O-])c1O` here?
A: 46.3 µM (active)

Q: For `NS(=O)(=O)c1ccc(CCNC(=O)c2cc(-c3cc(Cl)ccc3O)n[nH]2)cc1`, which IC50 [4] is on record?
A: 14.4 µM (inactive)

Q: And the IC50 [6]?
A: 119 µM (inactive)

Q: With `O=C(O)C1CCCCC1C(=O)Nc1cc(C(F)(F)F)ccc1Cl` (stereo unspecified) as the compound, how does the IC50 (Leucine aminopeptidase) read?
A: 17.5 µM (active)

Q: Which EC50 [1] does the source give for `O=C(CN1CCN(Cc2ccccc2Cl)CC1)N=Nc1c(O)[nH]c2ccccc12` here?
A: 0.376 µM (active)

Q: For `CCOc1ccc(NC(=O)CCC(=O)N/N=C/c2ccc([N+](=O)[O-])s2)cc1`, which IC50 (cells) is on record?
A: 13.6 µM (active)

Q: And the AC50 [7]?
A: 6.21 µM (active)

Q: What does the source list for `O=C(O)c1ccc(N=Nc2c(O)[nH]c3ccccc23)cc1`?
A: EC50 [9]: 937 nM (active); IC50 (Leucine aminopeptidase): 84.3 µM (active); EC50 [10]: 365 nM (active)

Q: Which IC50 (Leucine aminopeptidase) does the source give for `O=C(O)CCC(=O)Nc1sc2c(c1C(=O)Nc1cccc3ccccc13)CCCCC2` here?
A: 51 µM (active)
